{
  "source": "paper PMC9138505",
  "about": "“Small Molecule 20S Proteasome Enhancer Regulates MYC Protein Stability and Exhibits Antitumor Activity in Multiple Myeloma” (Biomedicines, 2022)",
  "tested_on": "RPMI-8226 cells",
  "experiment": "Gene expression profiling, NanoString nCounter PanCancer Pathways Panel, ROSALIND analysis",
  "format": "cell-based, human",
  "conditions": "RPMI-8226, TCH-165 samples 1-3",
  "description": "RPMI-8226 cells were treated with vehicle or TCH-165 (10 μM) for 4 h. Total RNA was obtained using the mirVana miRNA Isolation Kit, with phenol (Thermofisher Scientific; AM1560; Waltham, MA, USA). Total RNA was quantified by Qubit (Thermofisher Scientific; Q32855; Waltham, MA, USA). and gene expression was evaluated against the nCounter® PanCancer Pathways Panel^TM according to the standard NanoString protocol.\nData were analyzed by ROSALIND® [36] with a hyperscale architecture developed by ROSALIND, Inc. (San Diego, CA, USA). Normalization, fold changes and p-values were calculated using criteria provided by NanoString. ROSALIND follows the nCounter® Advanced Analysis protocol of dividing counts within a lane by the geometric mean of the normalizer probes from the same lane. Housekeeping probes to be used for normalization are selected based on the geNorm algorithm, as implemented in the NormqPCR R library. Fold changes and p-values are calculated using the fast method as described in the nCounter Advanced Analysis 2.0 User Manual. The p-value adjustment is performed using the Benjamini–Hochberg method of estimating false discovery rates (FDR). Clustering of genes for the final heatmap of differentially expressed genes was done using the PAM (Partitioning Around Medoids) method using the fpc R library. Hypergeometric distribution was used to analyze the enrichment of pathways, gene ontology, domain structure and other ontologies. The topGO R library was used to determine local similarities and dependencies between GO terms in order to perform Elim pruning correction. Several database sources were referenced for enrichment analysis, including Interpro [40], NCBI [41], MSigDB [42, 43], REACTOME [44], WikiPathways. Enrichment was calculated relative to a set of background genes relevant to the experiment.",
  "note": "Values joined by “and” are separate entries in the source; they are usually repeats but may differ in a detail not shown here. Equal values may be shown once.",
  "data": [
    {"smiles": "CCOC(=O)[C@]1(c2ccccc2)N=C(c2ccc(OC)cc2)N(Cc2ccccc2)[C@@H]1c1ccc(NCc2ccccc2)cc1", "note": "[TCH-165]", "values": [
      {"measurement": "ABL1 normalized gene expression", "result": "8.417 and 8.4055 and 8.194"},
      {"measurement": "ACVR1B normalized gene expression", "result": "5.827 and 5.592 and 5.805"},
      {"measurement": "ACVR2A normalized gene expression", "result": "6.629 and 6.427 and 6.2646"},
      {"measurement": "AKT1 normalized gene expression", "result": "9.563 and 9.727 and 9.565"},
      {"measurement": "AKT2 normalized gene expression", "result": "9.573 and 9.603 and 9.59"},
      {"measurement": "AKT3 normalized gene expression", "result": "5.86 and 5.739 and 5.506"},
      {"measurement": "ALK normalized gene expression", "result": "5.044 and 4.427 and 3.805"},
      {"measurement": "AMH normalized gene expression", "result": "4.488 and 4.27 and 3.291"},
      {"measurement": "ANGPT1 normalized gene expression", "result": "7.445 and 7.284 and 7.245"},
      {"measurement": "APC normalized gene expression", "result": "7.784 and 7.6193 and 7.522"},
      {"measurement": "AR normalized gene expression", "result": "4.723 and 4.093 and 4.653"},
      {"measurement": "ARID1A normalized gene expression", "result": "9.641 and 9.688 and 9.749"},
      {"measurement": "ARNT2 normalized gene expression", "result": "5.61 and 5.297 and 5.0068"},
      {"measurement": "ATM normalized gene expression", "result": "8.202 and 8.069 and 8.0531"},
      {"measurement": "ATR normalized gene expression", "result": "9.3284 and 9.349 and 9.258"},
      {"measurement": "ATRX normalized gene expression", "result": "10.3284 and 10.1666 and 10.2009"},
      {"measurement": "AXIN1 normalized gene expression", "result": "8.978 and 8.914 and 8.769"},
      {"measurement": "AXIN2 normalized gene expression", "result": "4.308 and 4.3768 and 4.39"},
      {"measurement": "B2M normalized gene expression", "result": "16.2154 and 16.1625 and 16.1882"},
      {"measurement": "BAD normalized gene expression", "result": "9.483 and 9.357 and 9.442"},
      {"measurement": "BAIAP3 normalized gene expression", "result": "6.488 and 5.962 and 5.926"},
      {"measurement": "BAMBI normalized gene expression", "result": "6.259 and 6.476 and 6.341"},
      {"measurement": "BAP1 normalized gene expression", "result": "8.78 and 8.732 and 8.643"},
      {"measurement": "BAX normalized gene expression", "result": "9.129 and 9.1412 and 9.225"},
      {"measurement": "BCL2A1 normalized gene expression", "result": "5.758 and 5.547 and 5.712"},
      {"measurement": "BCL2L1 normalized gene expression", "result": "10.1011 and 10.0891 and 10.0785"},
      {"measurement": "BCL2 normalized gene expression", "result": "9.695 and 9.7506 and 9.653"},
      {"measurement": "BCOR normalized gene expression", "result": "9.105 and 9.1915 and 9.017"},
      {"measurement": "BDNF normalized gene expression", "result": "5.044 and 4.739 and 5.0068"},
      {"measurement": "BID normalized gene expression", "result": "7.087 and 7.045 and 6.9095"},
      {"measurement": "BIRC3 normalized gene expression", "result": "5.924 and 5.759 and 5.5707"},
      {"measurement": "BMP2 normalized gene expression", "result": "5.259 and 4.7789 and 5.156"},
      {"measurement": "BMP4 normalized gene expression", "result": "3.86 and 2.891 and 3.0682"},
      {"measurement": "BMP5 normalized gene expression", "result": "5.758 and 5.124 and 4.653"},
      {"measurement": "BMP6 normalized gene expression", "result": "7.818 and 7.896 and 7.955"},
      {"measurement": "BMP7 normalized gene expression", "result": "8.639 and 8.544 and 8.563"},
      {"measurement": "BMPR1B normalized gene expression", "result": "5.53 and 5.476 and 5.592"},
      {"measurement": "BNIP3 normalized gene expression", "result": "9.175 and 9.079 and 9.173"},
      {"measurement": "BRAF normalized gene expression", "result": "8.142 and 7.966 and 8.109"},
      {"measurement": "BRCA1 normalized gene expression", "result": "10.3606 and 10.2785 and 10.3058"},
      {"measurement": "BRCA2 normalized gene expression", "result": "8.271 and 8.2205 and 8.187"},
      {"measurement": "CACNA1C normalized gene expression", "result": "4.649 and 4.029 and 4.291"},
      {"measurement": "CACNA1D normalized gene expression", "result": "7.445 and 7.37 and 7.163"},
      {"measurement": "CACNA1E normalized gene expression", "result": "5.723 and 5.124 and 4.876"},
      {"measurement": "CACNA1G normalized gene expression", "result": "4.649 and 4.093 and 4.483"},
      {"measurement": "CACNA1H normalized gene expression", "result": "5.259 and 4.3768 and 4.483"},
      {"measurement": "CACNA2D1 normalized gene expression", "result": "4.986 and 5.0613 and 5.2646"},
      {"measurement": "CACNB2 normalized gene expression", "result": "4.986 and 4.739 and 4.975"},
      {"measurement": "CACNB3 normalized gene expression", "result": "5.308 and 5.154 and 5.592"},
      {"measurement": "CACNB4 normalized gene expression", "result": "5.208 and 4.996 and 4.841"},
      {"measurement": "CACNG1 normalized gene expression", "result": "4.793 and 4.093 and 4.1271"},
      {"measurement": "CACNG4 normalized gene expression", "result": "6.629 and 6.927 and 6.75"},
      {"measurement": "CALML3 normalized gene expression", "result": "4.986 and 4.476 and 4.528"},
      {"measurement": "CALML5 normalized gene expression", "result": "4.924 and 3.739 and 3.291"},
      {"measurement": "CAMK2B normalized gene expression", "result": "5.156 and 4.029 and 4.1271"},
      {"measurement": "CAPN2 normalized gene expression", "result": "4.488 and 4.7789 and 4.653"},
      {"measurement": "CASP3 normalized gene expression", "result": "9.077 and 9.095 and 9.024"},
      {"measurement": "CASP7 normalized gene expression", "result": "7.9 and 7.832 and 7.858"},
      {"measurement": "CASP8 normalized gene expression", "result": "10.5065 and 10.4134 and 10.4228"},
      {"measurement": "CASP9 normalized gene expression", "result": "7.015 and 7.5638 and 7.592"},
      {"measurement": "CASP10 normalized gene expression", "result": "6.044 and 5.524 and 5.316"},
      {"measurement": "CBL normalized gene expression", "result": "6.94 and 6.657 and 6.805"},
      {"measurement": "CBLC normalized gene expression", "result": "2.723 and 1.891 and 3.0682"},
      {"measurement": "CCNA1 normalized gene expression", "result": "5.355 and 4.996 and 4.769"},
      {"measurement": "CCNA2 normalized gene expression", "result": "11.2764 and 11.2603 and 11.2666"},
      {"measurement": "CCNB1 normalized gene expression", "result": "12.2985 and 12.3229 and 12.3132"},
      {"measurement": "CCND1 normalized gene expression", "result": "7.343 and 7.069 and 7.218"},
      {"measurement": "CCND2 normalized gene expression", "result": "11.5762 and 11.5571 and 11.5967"},
      {"measurement": "CCND3 normalized gene expression", "result": "7.732 and 7.547 and 7.5547"},
      {"measurement": "CCNE1 normalized gene expression", "result": "7.001 and 7.297 and 7.31"},
      {"measurement": "CCNE2 normalized gene expression", "result": "8.015 and 7.524 and 7.638"},
      {"measurement": "CCNO normalized gene expression", "result": "5.156 and 4.093 and 4.0682"},
      {"measurement": "CCR7 normalized gene expression", "result": "3.723 and 3.817 and 3.483"},
      {"measurement": "CD14 normalized gene expression", "result": "5.53 and 5.402 and 5.437"},
      {"measurement": "CD19 normalized gene expression", "result": "4.571 and 4.476 and 4.184"},
      {"measurement": "CD40 normalized gene expression", "result": "6.86 and 6.729 and 6.901"},
      {"measurement": "CDC6 normalized gene expression", "result": "11.1861 and 11.1846 and 11.1724"},
      {"measurement": "CDC7 normalized gene expression", "result": "7.884 and 7.9093 and 7.845"},
      {"measurement": "CDC14A normalized gene expression", "result": "6.308 and 6.012 and 6.038"},
      {"measurement": "CDC14B normalized gene expression", "result": "5.86 and 5.891 and 6.0224"},
      {"measurement": "CDC25A normalized gene expression", "result": "8.686 and 8.482 and 8.39"},
      {"measurement": "CDC25B normalized gene expression", "result": "9.593 and 9.697 and 9.611"},
      {"measurement": "CDC25C normalized gene expression", "result": "8.406 and 8.5 and 8.492"},
      {"measurement": "CDH1 normalized gene expression", "result": "5.355 and 5.891 and 5.673"},
      {"measurement": "CDK2 normalized gene expression", "result": "8.944 and 8.829 and 8.792"},
      {"measurement": "CDK4 normalized gene expression", "result": "10.4105 and 10.495 and 10.3803"},
      {"measurement": "CDK6 normalized gene expression", "result": "9.974 and 9.747 and 9.87"},
      {"measurement": "CDKN1A normalized gene expression", "result": "7.714 and 7.882 and 7.792"},
      {"measurement": "CDKN1B normalized gene expression", "result": "7.835 and 7.891 and 7.722"},
      {"measurement": "CDKN1C normalized gene expression", "result": "7.81 and 7.789 and 7.581"}
    ]}
  ]
}
